Publication PMC7468908 (Nutrients, 2020)
Read-outs that look alike come from different tables or passages of the source.

Assays:
OATP1B3 = biological target: T1, OATP1B3 (Homo sapiens, UniProt Q9NPD5); experiment: OATP1B3-mediated pyranine uptake in A431 cells overexpressing OATP1B3; type: cell-based
T1 construct: host or cells: A431
T1 sequence (Q9NPD5 1-702): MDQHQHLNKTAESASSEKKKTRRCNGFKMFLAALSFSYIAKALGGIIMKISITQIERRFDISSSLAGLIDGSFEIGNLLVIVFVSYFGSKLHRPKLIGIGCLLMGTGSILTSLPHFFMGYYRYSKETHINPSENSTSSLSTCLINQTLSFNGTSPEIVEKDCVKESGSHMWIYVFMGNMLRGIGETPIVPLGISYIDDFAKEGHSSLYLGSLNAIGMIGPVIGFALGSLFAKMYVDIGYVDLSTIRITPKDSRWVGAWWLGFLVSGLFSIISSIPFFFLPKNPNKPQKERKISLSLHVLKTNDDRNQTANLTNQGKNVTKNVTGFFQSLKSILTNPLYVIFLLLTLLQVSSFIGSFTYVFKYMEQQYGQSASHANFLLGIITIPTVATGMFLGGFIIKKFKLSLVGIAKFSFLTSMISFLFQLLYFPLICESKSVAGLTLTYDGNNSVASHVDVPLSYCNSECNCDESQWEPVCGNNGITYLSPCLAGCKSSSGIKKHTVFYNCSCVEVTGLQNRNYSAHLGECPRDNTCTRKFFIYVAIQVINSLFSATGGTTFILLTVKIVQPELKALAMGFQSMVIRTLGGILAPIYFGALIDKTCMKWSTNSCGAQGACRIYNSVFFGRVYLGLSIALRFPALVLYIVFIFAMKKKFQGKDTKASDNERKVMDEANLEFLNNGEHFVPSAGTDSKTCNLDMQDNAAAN
Protocol: A431 cells overexpressing human OATPs, 1A2 (BC042452, HsCD00333163), 1B1 (Gene ID: AB026257), 1B3 (BC141525, HsCD00348132) or 2B1 (BC041095.1, HsCD00378878), or their mock transfected controls, were generated as previously described. Cells were cultured in Dulbecco’s Modified Eagle Medium (DMEM; Thermo Fischer Scientific, Waltham, MA, USA) supplemented with 10% fetal bovine serum, 2 mM L-glutamine, 100 units/mL penicillin and 100 µg/mL streptomycin, at 37 °C with 5% CO2.
Briefly, A431 cell overexpressing OATPs, 1A2, 1B1, 1B3 or 2B1, or their mock transfected controls, were seeded on 96-well plates in a density of 8x10^4 cells/well in 200 μL DMEM one day prior to the transport measurements. […] Thereafter, cells were incubated at 37°C for 15 min (OATP1B1 and OATP2B1), 10 min (OATP1A2), or 30 min (OATP1B3). The reactions were stopped by removing the supernatants, then the cells were washed three times with ice-cold PBS. […] OATP-dependent transport was calculated by extracting fluorescence measured in mock transfected cells. Transport activity was calculated based on the fluorescence signal in the absence (100%) of flavonoids. Experiments were repeated at least in three biological replicates. IC50 values were calculated by Hill1 fit, using the Origin Pro8.6 software ([…]).

BCRP = biological target: T2, BCRP (Homo sapiens, UniProt Q9UNQ0); experiment: BCRP vesicular transport of lucifer yellow in Sf9 membrane vesicles; type: biochemical; conditions: for concentration inducing statistically significant (p < 0.01) decrease in transport of LY by BCRP: 10 μM lucifer yellow; for IC50: vesicular uptake of 10 μM lucifer yellow
T2 construct: made in house; host or cells: Sf9 insect cells (baculovirus)
T2 sequence (Q9UNQ0 1-655): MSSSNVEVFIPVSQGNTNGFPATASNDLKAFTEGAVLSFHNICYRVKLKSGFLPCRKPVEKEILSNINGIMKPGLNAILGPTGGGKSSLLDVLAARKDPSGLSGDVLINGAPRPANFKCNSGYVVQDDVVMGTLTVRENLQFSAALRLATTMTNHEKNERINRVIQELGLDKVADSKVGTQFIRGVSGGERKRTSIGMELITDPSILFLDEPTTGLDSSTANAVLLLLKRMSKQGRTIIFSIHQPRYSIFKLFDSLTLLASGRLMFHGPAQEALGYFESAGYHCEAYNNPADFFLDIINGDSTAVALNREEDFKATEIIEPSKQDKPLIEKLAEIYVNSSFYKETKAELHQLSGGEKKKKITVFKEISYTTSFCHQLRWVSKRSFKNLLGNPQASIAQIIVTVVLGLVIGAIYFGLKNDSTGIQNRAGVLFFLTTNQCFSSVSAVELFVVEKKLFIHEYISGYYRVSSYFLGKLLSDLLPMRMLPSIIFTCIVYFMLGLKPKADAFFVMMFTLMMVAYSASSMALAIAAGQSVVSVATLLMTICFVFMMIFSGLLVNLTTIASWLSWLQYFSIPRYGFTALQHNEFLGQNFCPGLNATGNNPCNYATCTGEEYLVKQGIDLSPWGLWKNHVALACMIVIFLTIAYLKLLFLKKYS
Protocol: Experiments were performed in insect membrane vesicles, as describe previously. Human BCRP and MRP2 were expressed in Sf9 insect cells by baculoviruses. At the third day of infection, cells were collected and membrane vesicles were obtained by mechanical disruption and differential centrifugation. To get full activity for BCRP, the cholesterol levels of the vesicles were adjusted to the level of mammalian membranes. Vesicles were stored at -80°C, total protein content of preparations was measured by the Lowry method (used as a reference of the quantity). Membrane vesicles (50 μg protein/sample) were incubated at 37 °C for 10 min (without or with 4 mM of Mg-ATP) in 50 μL volume, in the presence of transporter specific fluorescent substrates (10 μM lucifer yellow (LY) for BCRP and 5 μM 5(6)-Carboxy-2′,7′-dichlorofluorescein (CDCF) for MRP2). […] ATP dependent uptake of fluorescent substrates was examined in the presence of flavonoids (up to 50–200 μM). Each compound was dissolved in DMSO and solvent controls were applied in all experiments. […] After incubation, samples were rapidly filtered and washed on filter plate (MSFBN6B10, Millipore, Burlington, MA, USA). Accumulated substrates in vesicles were solved back from the filter by 100 μL of 10% sodium dodecyl sulfate and centrifuged into another plate. A 100-μL volume of fluorescence stabilizer was added to the samples (DMSO for LY, and 0.1 M NaOH for CDCF). Fluorescence of samples was measured by a plate reader (Victor X3 Perkin-Elmer, Waltham, MA, USA) at appropriate wavelengths (filters were λex = 405 nm and λem = 535 nm for LY as well as λex = 492 nm and λem = 635 nm for CDCF).

[1] = 20 μM pyranine, 30 min, A431-OATP1B3 cells, read-out: IC50 for OATP1B3

SMILES | concentration causing statistically significant (p < 0.01) inhibition, OATP1B3 (OATP1B3; 20 μM pyranine, 30 min) [nM] | IC50 (OATP1B3; [1]) [µM] | concentration inducing statistically significant (p < 0.01) decrease in transport of LY by BCRP (BCRP) [nM] | IC50 (BCRP) [µM] | IC50 (OATP1B3) [µM]
COc1cc(-c2oc3cc(O)cc(O)c3c(=O)c2OC2OC(C(=O)O)C(O)C(O)C2O)ccc1O (stereo not shown) [I3G, isorhamnetin-3-glucuronide] | 6300 | 9.62 | 20000 | > 30 | –
COc1cc(-c2oc3cc(O)cc(O)c3c(=O)c2O)ccc1O [IR, isorhamnetin] | 3100 | – | 50 | – | 3.1
O=C(O)C1OC(Oc2c(-c3ccc(O)c(O)c3)oc3cc(O)cc(O)c3c2=O)C(O)C(O)C1O (stereo not shown) [Q3G, quercetin-3-glucuronide] | 3100 | 5.71 | 1000 | 13.5 | –
O=c1c(O)c(-c2ccc(O)c(OS(=O)(=O)O)c2)oc2cc(O)cc(O)c12 [Q3′S, quercetin-3′-sulfate] | 1300 | 2.5 | 200 | 3.2 | –
O=c1c(O)c(-c2ccc(O)c(O)c2)oc2cc(O)cc(O)c12 [Q, quercetin] | 2500 | 3.22 | 50 | 0.13 | –
